Data published in patent EP4782450A1, “NOVEL SKELETAL DERIVATIVE EFFECTIVE FOR HER2 MUTATION, AND PHARMACEUTICAL COMPOSITION COMPRISING SAME” (Hanmi Pharm. Co., Ltd., priority 2023, dated 2025).
Where two headings read alike, the source gives them in different places.

Tests used:
[1] = test system: wild-type EGFR overexpressing Ba/F3 cells; experiment: Growth inhibition of Ba/F3 cells engineered to overexpress wild-type EGFR (CellTiter-Glo luminescence); format: cell-based; settings: concentrations 10000 to 8 nM, read-out: Ba/F3 EGFR^WT GI50 class
Method: (§1) Experimental Example: Growth inhibition of Ba/F3 HER2 A775insYVMA and wild-type Ba/F3 cells
(§2) In this Experimental Example, the compounds obtained in Examples 1 to 92 were evaluated for their ability to inhibit growth of cells harboring either the HER2 A775insYVMA mutation or wild-type EGFR. For this purpose, Ba/F3 cells (ATCC, USA) were genetically engineered to overexpress either HER2 A775_G776insYVMA or wild-type EGFR, and the growth of these engineered Ba/F3 cells were monitored in the presence of the compounds described in the Examples to evaluate their effects on growth inhibition.
(§3) Specifically, culture flasks of the engineered Ba/F3 cells suspended in RPMI 1640 medium supplemented with 10% fetal bovine serum (FBS) and 1% penicillin/streptomycin (Gibco BRL, USA) were placed in a cell incubator and incubated at 37°C and 5% CO2 level to allow them to reach a stable logarithmic growth phase. The cells were then harvested by centrifugation to remove the old media and placed into a 96-well plate by dividing them into 100 µL aliquots per well at a dilution of 1×10^5 cells/mL in fresh media. Each of the compounds prepared in the preceding Examples were dissolved in 99.5% (cell culture grade) dimethylsulfoxide (DMSO) to prepare a stock solution of 10 mM concentration, which were serially diluted in the culture medium to final concentrations of 1000, 200, 40, 8, 1.6 and 0.32 nM for HER2 A775insYVMA Ba/F3 cells and concentrations of 10000, 5000, 1000, 200, 40 and 8 nM for wild-type EGFR overexpressing Ba/F3 cells.
(§4) To each aliquot of cells in the 96-well plate, a 50 µL test solution comprising one of the compounds was added to result in each well a 150 µL volume of cells with a compound in a final concentration ranging from 10 µM to 0.32 nM. The Ba/F3 cells treated with the test solution were incubated for 72 hours at 37°C and 5% CO2 level and underwent a 30-minute acclimation by placing the 96-well plate carrying the cells in ambient temperature. Thereafter, to each well was added 50 µL CellTiter-Glo® Luminescent Cell Assay Reagent (CTG, Promega, USA). After allowing 10 minutes to stabilize the signal, luminescence intensity was measured using a microplate reader. The half-maximal growth inhibition concentration (GI50) was calculated from the luminescence readout of the test compounds with the difference between the initial and final cell densities for the well untreated with a compound set at 100% growth. Nonlinear regression analysis based on log[inhibitor] vs. normalized response mode of the Graph Prism software was used for calculating GI50 for each compound, which are summarized in Table 6. The calculated GI50 values are classified in Table 6 into four categories: A for GI50 values less than 100 nM, B for GI50 values more than 100 nM but less than 1,000 nM, C for GI50 values more than 1,000 nM but less than 5,000 nM, and D for GI50 values of more than 5,000 nM.

[2] = test system: Ba/F3 HER2 A775insYVMA; experiment: Growth inhibition of Ba/F3 cells engineered to overexpress HER2 A775_G776insYVMA (CellTiter-Glo luminescence); format: cell-based; settings: concentrations 1000 to 0.32 nM, read-out: Ba/F3 HER2^YVMA GI50 class
Method: as §1, §2, §3, §4

Compound	GI50 ([1]; Mus musculus, BaF3, 72 hours) [µM]	GI50 ([2]; Mus musculus, BaF3, 72 hours) [µM]	GI50 ([1]; 72 hours) [µM]	GI50 ([2]; 72 hours) [µM]
C=CC(=O)N(C)C/C=C/c1ccc2ncnc(Nc3ccc(Oc4ccc5c(c4)ncn5C)c(F)c3)c2n1 [Example 55, (E)-N-(3-(4-((3-fluoro-4-((1-methyl-1H-benzo[d]imidazol-5-yl)oxy)phenyl)amino)pyrido[3,2-d]pyrimidin-6-yl)allyl)-N-methylacrylamide]	> 5	< 0.1	–	–
C=CC(=O)NC/C=C/c1ccc2ncnc(Nc3ccc(Oc4ccc5c(c4)ncn5C)c(C)c3F)c2n1 [Example 35, (E)-N-(3-(4-((2-fluoro-3-methyl-4-((1-methyl-1H-benzo[d]imidazol-5-yl)oxy)phenyl)amino)pyrido[3,2-d]pyrimidin-6-yl)allyl)acrylamide]	> 5	< 0.1	–	–
C=CC(=O)N1CCC[C@@H]1C#Cc1ccc2ncnc(Nc3ccc(OC4=CC5N=CN(C)C5C=C4)c(C)c3)c2n1 (stereo partly drawn) [Example 86, 1-((2R)-2-((4-((3-methyl-4-((1-methyl-3a,7a-dihydro-1H-benzo[d]imidazol-5-yl)oxy)phenyl)amino)pyrido[3,2-d]pyrimidin-6-yl)ethynyl)pyrrolidin-1-yl)prop-2-en-1-one]	1 to 5	< 0.1	–	–
C=CC(=O)N(C)c1cccc(/C=C/c2ccc3ncnc(Nc4ccc(Oc5ccc6c(c5)ncn6C)c(C)c4)c3n2)c1 [Example 63, (E)-N-methyl-N-(3-(2-(4-((3-methyl-4-((1-methyl-1H-benzo[d]imidazol-5-yl)oxy)phenyl)amino)pyrido[3,2-d]pyrimidin-6-yl)vinyl)phenyl)acrylamide]	1 to 5	0.1 to 1	–	–
Cc1c(Oc2ccc3c(c2)ncn3C)ccc(Nc2ncnc3ccc(/C=C/CNC(=O)/C=C/CN(C)C)nc23)c1F [Example 41, (E)-4-(dimethylamino)-N-((E)-3-(4-((2-fluoro-3-methyl-4-((1-methyl-1H-benzo[d]imidazol-5-yl)oxy)phenyl)amino)pyrido[3,2-d]pyrimidin-6-yl)allyl)but-2-enamide]	1 to 5	< 0.1	–	–
C/C=C/C(=O)N(C)C/C=C/c1ccc2ncnc(Nc3ccc(Oc4ccc5c(c4)ncn5C)c(C)c3)c2n1 [Example 31, (E)-N-methyl-N-((E)-3-(4-((3-methyl-4-((1-methyl-1H-benzo[d]imidazol-5-yl)oxy)phenyl)amino)pyrido[3,2-d]pyrimidin-6-yl)allyl)but-2-enamide]	1 to 5	0.1 to 1	–	–
C=CC(=O)N(C)CCN(C)c1ccc2ncnc(Nc3ccc(Oc4ccc5c(c4)ncn5C)c(C)c3)c2n1 [Example 18, N-methyl-N-(2-(methyl(4-((3-methyl-4-((1-methyl-1H-benzo[d]imidazol-5-yl)oxy)phenyl)amino)pyrido[3,2-d]pyrimidin-6-yl)amino)ethyl)acrylamide]	> 5	0.1 to 1	–	–
C=CC(=O)N1CCC[C@@H]1C#Cc1ncc2ncnc(Nc3ccc(Oc4ccn5ncnc5c4)c(C)c3)c2n1 [Example 83, (R)-1-(2-((8-((4-([1,2,4]triazolo[1,5-a]pyridin-7-yloxy)-3-methylphenyl)amino)pyrimido[5,4-d]pyrimidin-2-yl)ethynyl)pyrrolidin-1-yl)prop-2-en-1-one]	< 0.1	< 0.1	–	–
(S)-1-(2-((4-((3-methyl-4-((1-methyl-1H-benzo[d]imidazol-5-yl)oxy)phenyl)amino)pyrido[3,2-d]pyrimidin-6-yl)ethynyl)pyrrolidin-1-yl)prop-2-en-1-one [Example 87]	–	–	1 to 5	< 0.1
C=CC(=O)N(C)CC#Cc1ccc2ncnc(Nc3ccc(Oc4ccc5c(c4)ncn5C)c(C)c3)c2n1 [Example 71, N-methyl-N-(3-(4-((3-methyl-4-((1-methyl-1H-benzo[d]imidazol-5-yl)oxy)phenyl)amino)pyrido[3,2-d]pyrimidin-6-yl)prop-2-yn-1-yl)acrylamide]	1 to 5	0.1 to 1	–	–
C=CC(=O)N1CCC[C@@H]1C#Cc1ccc2ncnc(Nc3ccc(Oc4ccn5ncnc5c4)c(C)c3)c2c1 [Example 74, (R)-1-(2-((4-((4-([1,2,4]triazolo[1,5-a]pyridin-7-yloxy)-3-methylphenyl)amino)quinazolin-6-yl)ethynyl)pyrrolidin-1-yl)prop-2-en-1-one]	< 0.1	< 0.1	–	–
C=CC(=O)Nc1cccc(/C=C/c2ccc3ncnc(Nc4ccc(Oc5ccc6c(c5)ncn6C)c(C)c4)c3n2)c1 [Example 64, (E)-N-(3-(2-(4-((3-methyl-4-((1-methyl-1H-benzo[d]imidazol-5-yl)oxy)phenyl)amino)pyrido[3,2-d]pyrimidin-6-yl)vinyl)phenyl)acrylamide]	> 5	0.1 to 1	–	–
C=CC(=O)N(C)C/C=C/c1ccc2ncnc(Nc3ccc(Oc4ccc5ocnc5c4)c(C)c3)c2n1 [Example 57, (E)-N-(3-(4-((4-(benzo[d]oxazol-5-yloxy)-3-methylphenyl)amino)pyrido[3,2-d]pyrimidin-6-yl)allyl)-N-methylacrylamide]	0.1 to 1	< 0.1	–	–
C=CC(=O)N1CC(/C=C/c2ccc3ncnc(Nc4ccc(Oc5cnc6c(c5)ncn6C)c(C)c4)c3n2)C1 [Example 44]	> 5	< 0.1	–	–
Cc1cc(Nc2ncnc3ccc(/C=C/CN(C)C(=O)/C=C/CN4CCCCC4)nc23)ccc1Oc1ccc2c(c1)ncn2C [Example 61, (E)-N-methyl-N-((E)-3-(4-((3-methyl-4-((1-methyl-1H-benzo[d]imidazol-5-yl)oxy)phenyl)amino)pyrido[3,2-d]pyrimidin-6-yl)allyl)-4-(piperidin-1-yl)but-2-enamide]	1 to 5	< 0.1	–	–
C=CC(=O)N(C)CCCNc1ccc2ncnc(Nc3ccc(Oc4ccc5c(c4)ncn5C)c(C)c3)c2n1 [Example 17, N-methyl-N-(3-((4-((3-methyl-4-((1-methyl-1H-benzo[d]imidazol-5-yl)oxy)phenyl)amino)pyrido[3,2-d]pyrimidin-6-yl)amino)propyl)acrylamide]	> 5	< 0.1	–	–
C=CC(=O)N1CCC[C@H]1C#Cc1ncc2ncnc(Nc3ccc(Oc4ccn5ncnc5c4)c(C)c3)c2n1 [Example 84, (S)-1-(2-((8-((4-([1,2,4]triazolo[1,5-a]pyridin-7-yloxy)-3-methylphenyl)amino)pyrimido[5,4-d]pyrimidin-2-yl)ethynyl)pyrrolidin-1-yl)prop-2-en-1-one]	0.1 to 1	< 0.1	–	–
C=CC(=O)N(C)C/C=C/c1ccc2ncnc(Nc3ccc(Oc4ccc5c(c4)ncn5C)c(C)c3)c2c1 [Example 22]	1 to 5	< 0.1	–	–
C=CC(=O)N(C)CCOc1cc2c(Nc3ccc(Oc4ccn5ncnc5c4)c(C)c3)ncnc2cc1OC [Example 2, N-(2-((4-((4-([1,2,4]triazolo[1,5-a]pyridin-7-yloxy)-3-methylphenyl)amino)-7-methoxyquinazolin-6-yl)oxy)ethyl)-N-methylacrylamide]	0.1 to 1	< 0.1	–	–
C=CC(=O)N1CCCC[C@H]1C#Cc1ncc2ncnc(Nc3ccc(Oc4ccc5c(c4)ncn5C)c(C)c3)c2n1 [Example 92, (S)-1-(2-((8-((3-methyl-4-((1-methyl-1H-benzo[d]imidazol-5-yl)oxy)phenyl)amino)pyrimido[5,4-d]pyrimidin-2-yl)ethynyl)piperidin-1-yl)prop-2-en-1-one]	0.1 to 1	0.1 to 1	–	–
